From patent US8188222B2, “High molecular weight derivative of nucleic acid antimetabolite” (priority 2006, dated 2012)
Where a name gives a salt, the structure may show the parent alone.

Tests used:
[1] = tested on: mouse colon cancer, Colon26; experiment: Antitumor effect against tumor-bearing mouse (1); assay type: in vivo; conditions: 8th day after initiation of administration, once intravenously, volume on day of administration = 1.0, average ± SD
From the text: Tumor of mouse colon cancer, Colon26, maintained by subcutaneous subculture in mice, was minced into about 2-mm square blocks, and the blocks were transplanted subcutaneously on the dorsal part of a mouse using a trocar. On the 7th day after tumor transplantation, the compound of Example 5 dissolved in a 5% glucose injection solution and gemcitabine hydrochloride as a control drug dissolved in physiological saline were respectively administered once intravenously at the doses indicated in Table 2. The tumor volumes on the day of initiation of administration and on the 8th day after the initiation of administration were calculated by the following equation, and the relative tumor volumes on the day of initiation of administration and on the 8th day after the initiation of administration were determined.

[2] = tested on: mouse colon cancer, Colon26; experiment: Antitumor effect against tumor-bearing mouse (2); assay type: in vivo; conditions: once intravenously, dose 160 in terms of gemcitabine hydrochloride, average ± SD
From the text: A tumor mass of mouse colon cancer, Colon26, which had been subcutaneously subcultured in a mouse was cut into a block having an edge of about 2 mm at each side, and was transplanted under the skin of a mouse using a trocar. On the 7th day after tumor transplantation, the compound of Example 11, the compound of Example 14 and the compound of Example 17, dissolved in a 5% glucose injection solution and gemcitabine hydrochloride as a control drug dissolved in physiological saline were respectively administered once intravenously at the doses indicated in Table 3. The tumor volumes on the day of initiation of administration, and on the 7th day and 26th day after the initiation of administration were calculated by the above-described equation, and the relative tumor volumes on the day of initiation of administration and on the 7th day and 26th day after the initiation of administration were determined.

Q: How did the Relative tumor volume ([1]; dose 40 mg/kg in terms of gemcitabine hydrochloride) turn out when `Nc1ccn([C@@H]2O[C@H](CO)[C@@H](O)C2(F)F)c(=O)n1` [Control drug, gemcitabine hydrochloride] was run?
A: The Relative tumor volume was 5.3 ± 1.1.

Q: And the Relative tumor volume ([1]; dose 200 mg/kg in terms of gemcitabine hydrochloride)?
A: The Relative tumor volume was 4.8 ± 1.7.

Q: What about the “Relative tumor volume *” value ([2]; 7th day after initiation of administration) of the same molecule?
A: Its value is 1.5 ± 1.5.

Q: What about the “Relative tumor volume **” value ([2]; 26th day after initiation of administration) of the same molecule?
A: The value was 25.8 ± 36.0.
